Laboratory results reported in PMC8774190, “Characterization and Modification of Light-Sensitive Phosphodiesterases from Choanoflagellates” (Biomolecules, 2022).

Tested on: T1, CfRhoPDE1
T1 construct: full-length with N-terminal YFP tag kept; gene codon-optimised to Mus musculus, pGEMHE vector; Xenopus oocyte membrane fraction; all-trans retinal supplied
Experiment: cGMP hydrolysis by oocyte membranes, chemiluminescent immunoassay, Michaelis-Menten fit
Type: biochemical, Choanoeca flexa
Conditions: dark; pH 7.3, 5 mM MgCl2, 100 mM NaCl, 5 mM DTT; 1-100 μM cGMP

Compound: Nc1nc2c(ncn2[C@@H]2O[C@@H]3COP(=O)(O)O[C@H]3[C@H]2O)c(=O)[nH]1 [cGMP]
- Km: ~15 µM
